The source of these data is patent US20060166985A1, “Pyrrolydin-2-one derivatives as inhibitors of thrombin and factor xa” (priority 2002, published 2006).

In this assay the target is human Thrombin (Homo sapiens, UniProt P00734). Kind of assay: In vitro assay for inhibition of Thrombin (chromogenic or fluorogenic assay). In kind it is biochemical. The settings on record: Example 2 chromogenic assay, other Examples fluorogenic assay, read-out: thrombin inhibitory Ki. As for the experimental part:
Thrombin inhibitory activity is measured by the ability to inhibit human α-thrombin in a chromogenic assay using N-p-tosyl-gly-pro-lys p-nitroanilide as the chromogenic substrate, or in a fluorogenic assay using Rhodamine 110, bis-(CBZ-L-valyl-L-prolyl-L-arginine amide) as the fluorogenic substrate.
The compound was diluted from a 10 mM stock solution in dimethylsulfoxide at appropriate concentrations. Assay was performed at room temperature using buffer consisting of: 50 mM HEPES, 150 mM NaCl, 5 mM CaCl2, 0.1% PEG, pH 7.4. containing human Thrombin (final conc. of 1 nM). Compound and enzyme were preincubated for 15 min prior to addition of the substrate (final conc. of 100 μM). The reaction was stopped after 30 min with the addition of soybean trypsin inhibitor or H-D-PHE-PRO-ARG-Chloromethylketone. […] To obtain IC50 values the data were analysed using ActivityBase® and XLfit®.
Compounds were diluted from a 10 mM stock solution in dimethylsulfoxide at appropriate concentrations. Assay was performed at room temperature using buffer consisting of: 50 mM HEPES, 150 mM NaCl, 5 mM CaCl2, 0.1% PEG, pH 7.4. containing human Thrombin (final conc. Of 0.2 nM). Compound and enzyme were preincubated for 15 min prior to addition of the substrate (final conc. of 10 μM). The reaction was stopped after 3 hrs with the addition of H-D-PHE-PRO-ARG-Chloromethylketone. […] To obtain IC50 values the data were analysed using ActivityBase® and XLfit®.
Consider `C/C(=C\S(=O)(=O)N[C@H]1CCN([C@@H](CC(=O)OCc2ccccc2)C(=O)N2CCOCC2)C1=O)c1ccc(Cl)s1` [Example 22, Benzyl (3S)-3-[(3S)-3-({[(1E)-2-(5-Chlorothien-2-yl)prop-1-enyl]sulfonyl}amino)-2-oxopyrrolidin-1-yl]-4-morpholin-4-yl-4-oxobutanoate], for which the Ki was under 0.01 µM.

Regarding `O=C([C@H](Cc1cccs1)N1CC[C@H](NS(=O)(=O)CCc2ccc(Cl)s2)C1=O)N1CCOCC1` [Example 23, 2-(5-chlorothien-2-yl)-N-{(3S)-1-[(1S)-2-morpholin-4-yl-2-oxo-1-(thien-2-ylmethyl)ethyl]-2-oxopyrrolidin-3-yl}ethanesulfonamide], the Ki was under 0.01 µM. Consider `O=C([C@H](Cc1cccs1)N1CC[C@H](NS(=O)(=O)CCc2ccc(Cl)cc2)C1=O)N1CCOCC1` [Example 24, 2-(4-chlorophenyl)-N-{(3S)-1-[(1S)-2-morpholin-4-yl-2-oxo-1-(thien-2-ylmethyl)ethyl]-2-oxopyrrolidin-3-yl}ethanesulfonamide], for which the Ki is under 0.025 µM. Then `C[C@@H](C(=O)N1CCOCC1)N1CC[C@H](NS(=O)(=O)CCc2ccc(Cl)cc2F)C1=O` [Example 25, 2-(4-chloro-2-fluorophenyl)-N-{(3S)-1-[(1S)-1-methyl-2-morpholin-4-yl-2-oxoethyl]-2-oxopyrrolidin-3-yl}ethanesulfonamide], with under 0.2 µM; and `CC[C@@H](C(=O)N1CCOCC1)N1CC[C@H](NS(=O)(=O)CCc2ccc(Br)cc2)C1=O` [Example 26, 2-(4-bromophenyl)-N-{(3S)-1-[(1S)-1-(morpholin-4-ylcarbonyl)propyl]-2-oxopyrrolidin-3-yl}ethanesulfonamide], with under 0.1 µM; and `C[C@@H](C(=O)N1CCOCC1)N1CC[C@H](NS(=O)(=O)CC(F)(F)c2ccc(Cl)cc2)C1=O` [Example 27, 2-(4-chlorophenyl)-2,2-difluoro-N-{(3S)-1-[(1S)-1-methyl-2-morpholin-4-yl-2-oxoethyl]-2-oxopyrrolidin-3-yl}ethanesulfonamide], with under 0.025 µM. With `C[C@@H](C(=O)N1CCOCC1)N1CC[C@H](NS(=O)(=O)/C=C(\F)c2ccc(Cl)cc2)C1=O` [Example 28, (Z)-2-(4-chlorophenyl)-2-fluoro-N-{(3S)-1-[(1S)-1-methyl-2-morpholin-4-yl-2-oxoethyl]-2-oxopyrrolidin-3-yl}ethenesulfonamide] the figure was under 0.025 µM; with `CC[C@H](C)[C@@H](C(=O)N1CCOCC1)N1CC[C@H](NS(=O)(=O)CC(F)(F)c2ccc(Cl)cc2)C1=O` [Example 29, 2-(4-chlorophenyl)-2,2-difluoro-N-{(3S)-1-[(1S,2S)-2-methyl-1-(morpholin-4-ylcarbonyl)butyl]-2-oxopyrrolidin-3-yl}ethanesulfonamide], under 0.025 µM; with `CC[C@H](C)[C@@H](C(=O)N1CCOCC1)N1CC[C@H](NS(=O)(=O)/C=C(\F)c2ccc(Cl)cc2)C1=O` [Example 30, (Z)-2-(4-chlorophenyl)-2-fluoro-N-{(3S)-1-[(1S,2S)-2-methyl-1-(morpholin-4-ylcarbonyl)butyl]-2-oxopyrrolidin-3-yl}ethenesulfonamide], under 0.2 µM. In the case of `O=C(C[C@@H](C(=O)N1CCOCC1)N1CC[C@H](NS(=O)(=O)CCc2ccc(Cl)s2)C1=O)N1CCOCC1` [Example 31], the Ki was under 0.2 µM.

`CN(C)C(=O)C[C@@H](C(=O)N1CCOCC1)N1CC[C@H](NS(=O)(=O)CCc2ccc(Cl)s2)C1=O` [Example 32]: the Ki was under 0.05 µM. Turning to `C[C@@H](C(=O)N1CCOCC1)N1CC[C@H](NS(=O)(=O)CCc2ccc(Br)cc2)C1=O` [Example 33, 2-(4-bromophenyl)-N-{(3S)-1-[(1S)-1-methyl-2-morpholin-4-yl-2-oxoethyl]-2-oxopyrrolidin-3-yl}ethanesulfonamide], the Ki is under 0.025 µM. `CCOC(=O)CN([C@H]1CCN([C@@H](C)C(=O)N2CCOCC2)C1=O)S(=O)(=O)CCc1ccc(Cl)s1` [Example 34, Ethyl N-{[2-(5-chlorothien-2-yl)ethyl]sulfonyl}-N-{(3S)-1-[(1S)-1-methyl-2-morpholin-4-yl-2-oxoethyl]-2-oxopyrrolidin-3-yl}glycinate]: the Ki is under 0.025 µM. Then `COC(=O)CN([C@H]1CCN([C@@H](C)C(=O)N2CCOCC2)C1=O)S(=O)(=O)CCc1ccc(Cl)s1` [Example 35, Methyl N-{[2-(5-chlorothien-2-yl)ethyl]sulfonyl}-N-{(3S)-1-[(1S)-1-methyl-2-morpholin-4-yl-2-oxoethyl]-2-oxopyrrolidin-3-yl}glycinate], with under 0.025 µM; and `CC(C)C[C@@H](C(=O)N1CCOCC1)N1CC[C@H](NS(=O)(=O)CCc2ccc(Cl)s2)C1=O` [Example 37, 2-(5-chlorothien-2-yl)-N-{(3S)-1-[(1S)-3-methyl-1-(morpholin-4-ylcarbonyl)butyl]-2-oxopyrrolidin-3-yl}ethanesulfonamide], with under 0.1 µM; and `CC[C@H](C)[C@@H](C(=O)N1CCOCC1)N1CC[C@H](N(C)S(=O)(=O)CCc2ccc(Cl)s2)C1=O` [Example 38, 2-(5-chlorothien-2-yl)-N-methyl-N-{(3S)-1-[(1S,2S)-2-methyl-1-(morpholin-4-ylcarbonyl)butyl]-2-oxopyrrolidin-3-yl}ethanesulfonamide], with under 0.01 µM. Take `CC[C@H](C)[C@@H](C(=O)N1CCOCC1)N1CC[C@H](N(CC(=O)NC)S(=O)(=O)CCc2ccc(Cl)s2)C1=O` [Example 39, N^2-{[2-(5-chlorothien-2-yl)ethyl]sulfonyl}-N^1-methyl-N^2-{(3S)-1-[(1S,2S)-2-methyl-1-(morpholin-4-ylcarbonyl)butyl]-2-oxopyrrolidin-3-yl}glycinamide]: the Ki was under 0.025 µM. Then `CC[C@H](C)[C@@H](C(=O)N1CCOCC1)N1CC[C@H](N(CC(=O)N(C)C)S(=O)(=O)CCc2ccc(Cl)s2)C1=O` [Example 40, N^2-{[2-(5-chlorothien-2-yl)ethyl]sulfonyl)-N^1,N^1-dimethyl-N^2-{(3S)-1-[(1S,2S)-2-methyl-1-(morpholin-4-ylcarbonyl)butyl]-2-oxopyrrolidin-3-yl}glycinamide], with under 0.01 µM; and `C[C@@H](C(=O)N1CCOCC1)N1CC[C@H](NS(=O)(=O)/C=C(/c2ccc(Cl)s2)C(F)(F)F)C1=O` [Example 41, (1E)-2-(5-chlorothien-2-yl)-3,3,3-trifluoro-N-{(3S)-1-[(1S)-1-methyl-2-morpholin-4-yl-2-oxoethyl]-2-oxopyrrolidin-3-yl}prop-1-ene-1-sulfonamide], with under 0.1 µM. Take `C[C@@H](C(=O)N1CCOCC1)N1CC[C@H](NS(=O)(=O)CCc2ccc(Cl)cc2Cl)C1=O` [Example 42, 2-(2,4-dichlorophenyl)-N-{(3S)-1-[(1S)-1-methyl-2-morpholin-4-yl-2-oxoethyl]-2-oxopyrrolidin-3-yl}ethanesulfonamide]: the Ki is under 0.2 µM.

In the case of `CC(C)[C@@H](C(=O)N1CCOCC1)N1CC[C@H](NS(=O)(=O)CCc2ccc(Cl)cc2)C1=O` [Example 45, 2-(4-chlorophenyl)-N-{(3S)-1-[(1S)-2-methyl-1-(morpholin-4-ylcarbonyl)propyl]-2-oxopyrrolidin-3-yl}ethanesulfonamide], the Ki is under 0.05 µM. Regarding `O=C(O)C[C@@H](C(=O)N1CCOCC1)N1CC[C@H](NS(=O)(=O)CCc2ccc(Cl)s2)C1=O` [Example 46], the inhibition constant Ki was under 0.2 µM. On to `C[C@@H](C(=O)N1CCOCC1)N1CC[C@H](NS(=O)(=O)CCc2ccc(Cl)cn2)C1=O` [Example 47, 2-(5-chloro-2-pyridinyl)-N-{(3S)-1-[(1S)-1-methyl-2-(4-morpholinyl)-2-oxoethyl]-2-oxo-3-pyrrolidinyl}ethanesulfonamide], for which the Ki was under 0.1 µM.

Turning to `CC[C@H](C)[C@@H](C(=O)N1CCOCC1)N1CC[C@H](NS(=O)(=O)CCc2ccc(Cl)cn2)C1=O` [Example 48, 2-(5-chloro-2-pyridinyl)-N-{(3S)-1-[(1S,2S)-2-methyl-1-(4-morpholinylcarbonyl)butyl]-2-oxo-3-pyrrolidinyl}ethanesulfonamide], the Ki is under 0.025 µM. Turning to `CCOC[C@@H](C(=O)N1CCOCC1)N1CC[C@H](NS(=O)(=O)CCc2ccc(Cl)cn2)C1=O` [Example 49, 2-(5-chloro-2-pyridinyl)-N-{(3S)-1-[(1S)-1-[(ethyloxy)methyl]-2-(4-morpholinyl)-2-oxoethyl]-2-oxo-3-pyrrolidinyl}ethanesulfonamide], the Ki was under 0.025 µM. Regarding `COC[C@@H](C(=O)N1CCOCC1)N1CC[C@H](NS(=O)(=O)CCc2ccc(Cl)cn2)C1=O` [Example 50, 2-(5-chloro-2-pyridinyl)-N-{(3S)-1-[(1S)-1-[(methyloxy)methyl]-2-(4-morpholinyl)-2-oxoethyl]-2-oxo-3-pyrrolidinyl}ethanesulfonamide], the Ki is under 0.2 µM. As to `CC[C@H](C)[C@@H](C(=O)N1CCOCC1)N1CC[C@H](NS(=O)(=O)CC(=O)c2ccc(Cl)cc2)C1=O` [Example 51, 2-(4-chlorophenyl)-N-{(3S)-1-[(1S,2S)-2-methyl-1-(4-morpholinylcarbonyl)butyl]-2-oxo-3-pyrrolidinyl}-2-oxoethanesulfonamide], the Ki is under 0.05 µM.

As for `COC[C@@H](C(=O)N1CCOCC1)N1CC[C@H](NS(=O)(=O)CC(=O)c2ccc(Cl)cc2)C1=O` [Example 52], the Ki was under 0.05 µM.
